Test results from ChEMBL document CHEMBL5465560, “Selectivity Literature for EUbOPEN Chemogenomic Library” (2024).

Legend:
[1] = target: Tyrosine-protein kinase FRK (Homo sapiens) (UniProt P42685); assay: Selectivity interaction (KinomeScan (DiscoverX)) EUB0001079a FRK; conditions: at 1 µM
[2] = target: Sodium-dependent dopamine transporter (Homo sapiens, UniProt Q01959); assay: Selectivity interaction (GPCR panel (PDSP screen)) EUB0001079a SLC6A3; conditions: at 10 µM
[3] = target: Serine/threonine-protein kinase WNK4 (Homo sapiens) (UniProt Q96J92); assay: Selectivity interaction (KinomeScan (DiscoverX)) EUB0001079a WNK4; conditions: at 1 µM
[4] = target: Ephrin type-A receptor 2 (Homo sapiens) (UniProt P29317); conditions: at 10 µM
[5] = target: Maternal embryonic leucine zipper kinase (Homo sapiens) (UniProt Q14680); conditions: at 10 µM
[6] = target: T1, Inhibitor of nuclear factor kappa-B kinase subunit epsilon (Homo sapiens) (UniProt Q14164); assay: Selectivity interaction (ActivX KiNativ screen (kinase selectivity in THP-1 cell lysates)) EUB0000639a IKBKE; type: subcellular; conditions: lysate, at 1 µM
T1 sequence (whole entry): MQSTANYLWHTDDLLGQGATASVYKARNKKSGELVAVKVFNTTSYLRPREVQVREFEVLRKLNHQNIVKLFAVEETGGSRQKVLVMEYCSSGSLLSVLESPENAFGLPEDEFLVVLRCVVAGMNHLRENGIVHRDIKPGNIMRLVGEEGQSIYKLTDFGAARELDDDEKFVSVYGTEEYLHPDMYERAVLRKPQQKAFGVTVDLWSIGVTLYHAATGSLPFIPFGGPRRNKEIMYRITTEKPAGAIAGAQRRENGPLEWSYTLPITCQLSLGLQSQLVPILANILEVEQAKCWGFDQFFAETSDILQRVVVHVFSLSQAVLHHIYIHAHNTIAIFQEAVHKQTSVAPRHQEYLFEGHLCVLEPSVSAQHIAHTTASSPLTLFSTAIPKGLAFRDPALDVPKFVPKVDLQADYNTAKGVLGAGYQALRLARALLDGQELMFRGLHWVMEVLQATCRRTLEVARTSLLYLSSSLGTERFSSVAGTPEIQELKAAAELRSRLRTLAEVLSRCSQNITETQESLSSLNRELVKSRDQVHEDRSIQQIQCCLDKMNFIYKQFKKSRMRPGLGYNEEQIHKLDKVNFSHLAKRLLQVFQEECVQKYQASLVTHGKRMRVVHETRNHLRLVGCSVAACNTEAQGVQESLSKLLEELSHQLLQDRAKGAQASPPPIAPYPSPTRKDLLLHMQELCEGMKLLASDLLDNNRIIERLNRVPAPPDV

[7] = target: Dual specificity mitogen-activated protein kinase kinase 1 (Homo sapiens, UniProt Q02750); assay: Selectivity interaction (Ambit KINOMEscan and KiNATiv profiling in Jurkat cells) EUB0000090b MAP2K1; type: cell-based; conditions: at 1 µM
[8] = target: Protein arginine N-methyltransferase 6 (Homo sapiens, UniProt Q96LA8); assay: Selectivity interaction (Methyltransferase screen (Scintillation proximity assays)) EUB0000255b PRMT6
[9] = target: T2, Phosphatidylinositol 5-phosphate 4-kinase type-2 alpha (Homo sapiens) (UniProt P48426); assay: Selectivity interaction (ActivX KiNativ screen (ex vivo kinase selectivity in human PBMCs)) EUB0001619a PIP4K2A; type: cell-based; conditions: PBMC, at 1 µM
T2 sequence (whole entry): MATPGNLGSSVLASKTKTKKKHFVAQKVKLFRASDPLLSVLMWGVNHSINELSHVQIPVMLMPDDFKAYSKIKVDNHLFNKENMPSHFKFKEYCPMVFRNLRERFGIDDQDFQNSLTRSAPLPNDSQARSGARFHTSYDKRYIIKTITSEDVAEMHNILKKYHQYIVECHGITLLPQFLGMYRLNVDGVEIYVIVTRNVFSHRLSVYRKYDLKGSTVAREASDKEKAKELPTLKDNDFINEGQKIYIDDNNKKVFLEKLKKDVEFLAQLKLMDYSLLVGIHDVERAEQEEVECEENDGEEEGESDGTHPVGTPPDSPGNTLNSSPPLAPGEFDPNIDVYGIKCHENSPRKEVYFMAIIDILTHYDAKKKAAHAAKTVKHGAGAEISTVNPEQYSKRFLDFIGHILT

[10] = target: T3, Cyclin-dependent kinase-like 5 (Homo sapiens) (UniProt O76039); assay: Selectivity interaction (KinomeScan (DiscoverX)) EUB0000655a CDKL5; conditions: at 10 µM
T3 sequence (whole entry): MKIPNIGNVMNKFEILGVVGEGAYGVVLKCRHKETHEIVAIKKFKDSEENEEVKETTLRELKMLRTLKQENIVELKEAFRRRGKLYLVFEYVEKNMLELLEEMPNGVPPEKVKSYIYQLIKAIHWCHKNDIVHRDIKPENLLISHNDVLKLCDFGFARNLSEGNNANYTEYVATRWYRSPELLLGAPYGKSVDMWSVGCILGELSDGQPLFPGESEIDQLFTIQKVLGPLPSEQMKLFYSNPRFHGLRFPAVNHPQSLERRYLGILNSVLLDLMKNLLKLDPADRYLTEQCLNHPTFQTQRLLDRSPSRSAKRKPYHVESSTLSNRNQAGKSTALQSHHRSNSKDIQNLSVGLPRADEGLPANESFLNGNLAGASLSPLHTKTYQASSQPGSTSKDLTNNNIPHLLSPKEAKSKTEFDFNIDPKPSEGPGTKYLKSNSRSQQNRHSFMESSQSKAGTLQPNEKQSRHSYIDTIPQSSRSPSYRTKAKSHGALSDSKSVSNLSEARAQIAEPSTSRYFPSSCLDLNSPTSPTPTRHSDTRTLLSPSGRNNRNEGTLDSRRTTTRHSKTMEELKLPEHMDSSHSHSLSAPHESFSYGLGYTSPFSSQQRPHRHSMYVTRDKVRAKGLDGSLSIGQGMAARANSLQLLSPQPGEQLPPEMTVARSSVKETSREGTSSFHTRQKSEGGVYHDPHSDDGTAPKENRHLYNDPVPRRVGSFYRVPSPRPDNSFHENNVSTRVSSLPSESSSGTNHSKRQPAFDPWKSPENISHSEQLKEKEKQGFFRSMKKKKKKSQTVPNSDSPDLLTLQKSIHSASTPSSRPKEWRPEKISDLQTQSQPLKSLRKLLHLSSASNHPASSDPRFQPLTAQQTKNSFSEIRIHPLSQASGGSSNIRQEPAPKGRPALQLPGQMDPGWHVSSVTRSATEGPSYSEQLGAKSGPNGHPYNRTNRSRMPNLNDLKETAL

[11] = target: Dual specificity tyrosine-phosphorylation-regulated kinase 1B (Homo sapiens, UniProt Q9Y463); assay: Selectivity interaction (KinomeScan (DiscoverX)) EUB0000655a DYRK1B; conditions: at 10 µM
[12] = target: Kappa-type opioid receptor (Homo sapiens, UniProt P41145); assay: Selectivity interaction (Panel of kinases, GPCRs, ion channels and transporters (enzymatic assay)) EUB0000223bCl OPRK1
[13] = target: Proto-oncogene tyrosine-protein kinase ROS (Homo sapiens) (UniProt P08922); assay: Selectivity interaction (Kinase panel (Z-LYTE Assay)) EUB0001632a ROS1; conditions: at 10 µM
Proto-oncogene tyrosine-protein kinase ROS (Homo sapiens), sequence (P08922 whole entry): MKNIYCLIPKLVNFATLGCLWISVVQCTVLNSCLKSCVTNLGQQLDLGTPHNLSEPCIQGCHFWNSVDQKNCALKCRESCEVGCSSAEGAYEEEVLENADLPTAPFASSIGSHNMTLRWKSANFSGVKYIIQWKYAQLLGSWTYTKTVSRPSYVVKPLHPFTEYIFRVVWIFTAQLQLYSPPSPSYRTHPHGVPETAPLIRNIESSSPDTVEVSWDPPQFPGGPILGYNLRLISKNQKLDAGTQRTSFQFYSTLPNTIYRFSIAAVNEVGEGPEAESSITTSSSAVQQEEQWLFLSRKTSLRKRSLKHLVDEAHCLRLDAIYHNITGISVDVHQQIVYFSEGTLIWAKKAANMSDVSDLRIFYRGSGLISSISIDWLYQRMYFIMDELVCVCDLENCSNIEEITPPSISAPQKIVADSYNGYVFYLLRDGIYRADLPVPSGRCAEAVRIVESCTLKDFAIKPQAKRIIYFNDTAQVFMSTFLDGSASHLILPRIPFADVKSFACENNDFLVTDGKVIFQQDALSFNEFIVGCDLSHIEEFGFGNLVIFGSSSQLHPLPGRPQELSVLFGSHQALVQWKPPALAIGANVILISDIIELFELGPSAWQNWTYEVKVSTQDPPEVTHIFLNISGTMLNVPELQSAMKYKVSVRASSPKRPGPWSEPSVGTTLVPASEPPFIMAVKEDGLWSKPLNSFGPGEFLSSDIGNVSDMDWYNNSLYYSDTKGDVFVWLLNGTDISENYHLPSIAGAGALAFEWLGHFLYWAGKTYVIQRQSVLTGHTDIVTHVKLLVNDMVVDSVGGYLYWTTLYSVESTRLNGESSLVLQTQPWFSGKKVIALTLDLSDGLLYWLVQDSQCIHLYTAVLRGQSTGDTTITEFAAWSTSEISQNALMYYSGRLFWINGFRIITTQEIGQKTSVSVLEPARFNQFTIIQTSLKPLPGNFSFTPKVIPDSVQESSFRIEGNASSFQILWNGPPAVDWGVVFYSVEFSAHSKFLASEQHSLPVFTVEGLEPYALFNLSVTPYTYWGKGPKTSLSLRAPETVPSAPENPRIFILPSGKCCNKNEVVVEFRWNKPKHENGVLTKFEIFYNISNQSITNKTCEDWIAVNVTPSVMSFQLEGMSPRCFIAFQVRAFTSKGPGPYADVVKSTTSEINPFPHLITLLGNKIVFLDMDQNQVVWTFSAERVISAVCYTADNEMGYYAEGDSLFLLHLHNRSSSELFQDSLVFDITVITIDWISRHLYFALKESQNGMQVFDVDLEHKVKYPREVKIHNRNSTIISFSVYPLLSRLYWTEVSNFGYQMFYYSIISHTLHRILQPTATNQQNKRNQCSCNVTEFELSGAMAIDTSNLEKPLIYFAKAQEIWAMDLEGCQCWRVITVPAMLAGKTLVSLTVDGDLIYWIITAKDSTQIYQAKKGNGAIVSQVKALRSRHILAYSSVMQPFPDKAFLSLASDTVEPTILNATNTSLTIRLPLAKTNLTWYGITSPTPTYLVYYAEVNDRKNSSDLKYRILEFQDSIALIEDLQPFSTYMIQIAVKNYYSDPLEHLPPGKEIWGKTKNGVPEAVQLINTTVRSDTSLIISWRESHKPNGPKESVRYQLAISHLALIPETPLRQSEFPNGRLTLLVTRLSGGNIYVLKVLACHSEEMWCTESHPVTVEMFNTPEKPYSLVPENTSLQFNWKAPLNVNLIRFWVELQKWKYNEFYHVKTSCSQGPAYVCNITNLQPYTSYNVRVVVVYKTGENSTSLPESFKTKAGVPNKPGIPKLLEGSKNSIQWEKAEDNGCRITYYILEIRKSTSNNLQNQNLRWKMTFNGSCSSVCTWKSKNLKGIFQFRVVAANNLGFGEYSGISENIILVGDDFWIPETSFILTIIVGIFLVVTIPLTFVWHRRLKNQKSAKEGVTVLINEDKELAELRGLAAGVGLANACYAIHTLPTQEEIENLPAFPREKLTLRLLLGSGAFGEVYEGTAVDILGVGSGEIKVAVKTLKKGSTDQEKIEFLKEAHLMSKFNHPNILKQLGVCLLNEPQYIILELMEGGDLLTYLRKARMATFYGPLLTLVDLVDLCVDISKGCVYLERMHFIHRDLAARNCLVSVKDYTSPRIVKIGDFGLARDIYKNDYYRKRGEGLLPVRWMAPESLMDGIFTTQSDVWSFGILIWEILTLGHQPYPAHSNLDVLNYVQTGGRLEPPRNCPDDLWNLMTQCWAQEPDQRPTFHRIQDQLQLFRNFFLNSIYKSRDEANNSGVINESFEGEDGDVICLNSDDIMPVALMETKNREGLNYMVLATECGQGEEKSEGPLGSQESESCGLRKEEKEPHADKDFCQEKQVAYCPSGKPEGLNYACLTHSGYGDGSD

Protein arginine N-methyltransferase 6, sequence (Q96LA8 whole entry, looked up): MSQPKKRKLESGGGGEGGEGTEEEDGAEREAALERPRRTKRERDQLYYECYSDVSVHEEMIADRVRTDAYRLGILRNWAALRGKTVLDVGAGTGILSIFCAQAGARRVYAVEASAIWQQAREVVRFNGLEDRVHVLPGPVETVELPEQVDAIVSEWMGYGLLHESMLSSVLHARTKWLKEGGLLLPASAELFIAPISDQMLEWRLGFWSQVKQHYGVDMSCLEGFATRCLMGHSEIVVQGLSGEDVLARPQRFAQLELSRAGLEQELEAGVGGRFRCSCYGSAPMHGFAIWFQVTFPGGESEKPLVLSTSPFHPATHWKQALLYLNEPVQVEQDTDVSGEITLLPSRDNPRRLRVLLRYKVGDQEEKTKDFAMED
Kappa-type opioid receptor, sequence (P41145 whole entry): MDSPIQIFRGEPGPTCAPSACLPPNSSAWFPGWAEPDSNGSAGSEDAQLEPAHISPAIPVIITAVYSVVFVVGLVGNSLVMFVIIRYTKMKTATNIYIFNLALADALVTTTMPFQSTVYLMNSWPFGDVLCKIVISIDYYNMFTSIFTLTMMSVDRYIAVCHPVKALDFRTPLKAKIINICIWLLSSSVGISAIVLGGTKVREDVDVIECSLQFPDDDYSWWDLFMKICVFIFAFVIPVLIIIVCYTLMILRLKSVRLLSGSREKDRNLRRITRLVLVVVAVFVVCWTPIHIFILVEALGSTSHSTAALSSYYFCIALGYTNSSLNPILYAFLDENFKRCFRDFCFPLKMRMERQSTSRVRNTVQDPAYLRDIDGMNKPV
Ephrin type-A receptor 2 (Homo sapiens), sequence (P29317 whole entry): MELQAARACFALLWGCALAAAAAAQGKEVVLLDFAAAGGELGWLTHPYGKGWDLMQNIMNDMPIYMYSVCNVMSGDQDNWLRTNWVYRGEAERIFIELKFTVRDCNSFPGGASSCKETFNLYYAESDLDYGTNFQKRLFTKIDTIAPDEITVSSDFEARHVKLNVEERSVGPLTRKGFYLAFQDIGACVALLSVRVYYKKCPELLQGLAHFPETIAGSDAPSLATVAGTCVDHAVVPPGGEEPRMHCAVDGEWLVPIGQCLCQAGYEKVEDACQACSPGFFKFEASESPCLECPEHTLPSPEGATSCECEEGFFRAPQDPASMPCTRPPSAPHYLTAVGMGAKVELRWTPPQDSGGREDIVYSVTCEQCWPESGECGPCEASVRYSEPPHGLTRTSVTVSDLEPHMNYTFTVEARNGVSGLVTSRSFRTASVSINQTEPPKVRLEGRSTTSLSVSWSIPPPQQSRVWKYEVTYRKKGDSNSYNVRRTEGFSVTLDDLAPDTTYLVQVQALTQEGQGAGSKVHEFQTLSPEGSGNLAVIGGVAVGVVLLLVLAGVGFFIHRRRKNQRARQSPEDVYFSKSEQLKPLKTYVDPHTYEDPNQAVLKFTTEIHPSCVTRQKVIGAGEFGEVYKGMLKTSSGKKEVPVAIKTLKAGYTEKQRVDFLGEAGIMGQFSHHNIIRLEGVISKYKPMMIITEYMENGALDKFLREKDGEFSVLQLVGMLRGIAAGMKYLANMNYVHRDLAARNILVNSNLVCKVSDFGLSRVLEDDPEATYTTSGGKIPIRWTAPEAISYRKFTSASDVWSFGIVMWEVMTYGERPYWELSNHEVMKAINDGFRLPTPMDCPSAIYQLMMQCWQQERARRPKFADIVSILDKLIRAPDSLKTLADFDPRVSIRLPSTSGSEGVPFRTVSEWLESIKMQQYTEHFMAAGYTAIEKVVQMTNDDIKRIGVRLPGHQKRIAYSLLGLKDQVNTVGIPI
Dual specificity tyrosine-phosphorylation-regulated kinase 1B, sequence (Q9Y463 whole entry, looked up): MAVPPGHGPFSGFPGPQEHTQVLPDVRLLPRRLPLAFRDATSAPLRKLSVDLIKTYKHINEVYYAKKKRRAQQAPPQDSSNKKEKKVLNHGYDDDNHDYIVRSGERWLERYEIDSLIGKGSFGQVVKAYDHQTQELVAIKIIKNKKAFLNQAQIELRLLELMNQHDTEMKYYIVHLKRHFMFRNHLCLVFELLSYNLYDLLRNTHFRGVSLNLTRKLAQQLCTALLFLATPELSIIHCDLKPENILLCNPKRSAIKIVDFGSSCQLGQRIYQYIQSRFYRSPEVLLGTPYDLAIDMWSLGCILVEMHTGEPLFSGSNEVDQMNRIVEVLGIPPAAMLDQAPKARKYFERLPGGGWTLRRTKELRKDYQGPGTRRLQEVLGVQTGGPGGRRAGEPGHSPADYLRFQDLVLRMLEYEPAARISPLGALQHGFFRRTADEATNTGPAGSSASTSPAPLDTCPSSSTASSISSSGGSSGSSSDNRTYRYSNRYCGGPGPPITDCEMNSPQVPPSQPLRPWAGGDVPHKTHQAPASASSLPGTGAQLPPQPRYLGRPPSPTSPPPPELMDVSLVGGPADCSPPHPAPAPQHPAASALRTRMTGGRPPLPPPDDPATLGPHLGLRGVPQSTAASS
Dual specificity mitogen-activated protein kinase kinase 1, sequence (Q02750 whole entry): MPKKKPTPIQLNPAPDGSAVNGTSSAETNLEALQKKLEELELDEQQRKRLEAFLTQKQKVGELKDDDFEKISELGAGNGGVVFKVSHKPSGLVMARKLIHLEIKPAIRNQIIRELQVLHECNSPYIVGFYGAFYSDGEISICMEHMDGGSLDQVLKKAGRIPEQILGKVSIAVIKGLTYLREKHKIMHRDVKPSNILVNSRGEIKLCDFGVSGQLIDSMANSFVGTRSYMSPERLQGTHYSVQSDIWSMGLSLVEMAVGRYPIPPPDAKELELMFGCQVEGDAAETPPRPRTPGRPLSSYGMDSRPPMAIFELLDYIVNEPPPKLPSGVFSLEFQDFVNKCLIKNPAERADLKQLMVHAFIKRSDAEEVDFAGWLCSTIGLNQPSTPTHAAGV

Nc1cnc(N2CCc3cc(S(=O)(=O)Nc4c(F)cc(Cl)cc4F)cc(N4CCCC4=O)c32)nc1 [TP-020n]
% of control [1]: 62% | % of inhibition [2]: 20.2% | % of control [3]: 100%

CCN(CC)CCCCNc1ncc2cc(-c3cc(OC)cc(OC)c3)c(NC(=O)NC(C)(C)C)nc2n1
% of control [4]: 100% | % of control [5]: 100%

CC[C@@H]1[C@H](F)C(=O)N[C@@H]1COc1nccc2cc(C(N)=O)c(OC)cc12 [ZIMLOVISERTIB]
% of inhibition [6]: 10%

CN(C)C/C=C/C(=O)Nc1ccc(C(=O)N2CCCC(Nc3ncc(Cl)c(-c4c[nH]c5ccccc45)n3)C2)cc1 (centres undefined)
% of control [7]: 99%

COCCN1CCC(c2cc(CN(C)C(=O)c3cccc(Oc4ccccc4)c3)ccn2)CC1
% activity ([8]; at 1 µM): 17% | % activity ([8]; at 10 µM): > 90%

N#Cc1cccc(-c2c[nH]c3ncnc(N4CCOCC4)c23)c1
% of inhibition [9]: 15%

CN(C)CCOc1ccc(-c2nc(-c3ccncc3)c(-c3ccc4c(c3)CC/C4=N\O)[nH]2)cc1
% of control [10]: 100% | % of control [11]: 100%

COc1cc(C(=O)N2CC[C@@H](O)[C@@H](N)C2)cc2nc(-c3cc4ccccc4n3CC3CC3)n(C)c12
pXC50 [12]: 4.1 M

Cn1cc(-n2cnc3c(NCc4nc5cc(Cl)c(Cl)cc5[nH]4)nc(N4CCOCC4)nc32)cn1
% of control [13]: 0.847%
